# From patent publication US9113629B2, “4-amino-6-(4-substituted-phenyl)-picolinates and 6-amino-2-(4-substituted-phenyl)-pyrimidine-4-carboxylates and their use as herbicides” (DOW AGROSCIENCES LLC, priority 2013, dated 2015)
# Test system: PHAMI: lesser canary grass (Phalaris minor)
# Assay: Post-emergent Test III, herbicidal activity in wheat and barley
# Assay type: in vivo
# Details: Phalaris minor, post-emergence, 504 h; 35 g ai/ha; read-out: Visual Growth Reduction (%) 21 Days After Application PHAMI
# In short: (§1)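 Plants at the second to third true-leaf stage, grown in a greenhouse at about 18/17 °C with a 14 h photoperiod, were sprayed post-emergence at 187 L/ha with the high rate and ½× to 1/16× serial dilutions in an acetone/DMSO/crop-oil/surfactant carrier. Injury was rated visually at 21 d on a 0–100% scale, and GR20–GR90 were derived by probit analysis.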
row,Structure (SMILES),pest or weed control at 35 g/ha [%]
1,"Nc1c(F)c(-c2ccc(I)cc2)nc(C(=O)O)c1Cl [Compound 45, 4-amino-3-chloro-5-fluoro-6-(4-iodophenyl)picolinic acid]",75 to 84
2,COC(=O)c1nc(-c2ccc(OC(F)F)cc2)c(F)c(N)c1Cl [Compound 85],0 to 29
3,"COC(=O)c1nc(-c2ccc(Br)c(F)c2F)cc(N)c1Cl [Compound 114, methyl 4-amino-6-(4-bromo-2,3-difluorophenyl)-3-chloropicolinate]",0 to 29
4,"COC(=O)c1nc(-c2ccc(I)cc2)c(F)c(N)c1Cl [Compound 118, Methyl 4-amino-6-(4-iodophenyl)-3-chloro-5-fluoropicolinate]",0 to 29
5,"COC(=O)c1nc(-c2ccc(Br)cc2)c(F)c(N)c1Cl [Compound 138, Methyl 4-amino-6-(4-bromophenyl)-3-chloro-5-fluoropicolinate]",45 to 59
6,COC(=O)c1nc(-c2ccc(C#N)cc2)c(F)c(N)c1Cl [Compound 142],0 to 29
7,Nc1c(F)c(-c2ccc(OC(F)F)cc2)nc(C(=O)O)c1Cl [Compound 143],0 to 29

# Same assay, conditions: Phalaris minor, post-emergence, 504 h; 70 g ai/ha; read-out: Visual Growth Reduction (%) 21 Days After Application PHAMI
row,Structure (SMILES),pest or weed control at 70 g/ha [%]
1,"Nc1c(F)c(-c2ccc(I)cc2)nc(C(=O)O)c1Cl [Compound 45, 4-amino-3-chloro-5-fluoro-6-(4-iodophenyl)picolinic acid]",85 to 94
2,COC(=O)c1nc(-c2ccc(OC(F)F)cc2)c(F)c(N)c1Cl [Compound 85],0 to 29
3,"COC(=O)c1nc(-c2ccc(Br)c(F)c2F)cc(N)c1Cl [Compound 114, methyl 4-amino-6-(4-bromo-2,3-difluorophenyl)-3-chloropicolinate]",0 to 29
4,"COC(=O)c1nc(-c2ccc(I)cc2)c(F)c(N)c1Cl [Compound 118, Methyl 4-amino-6-(4-iodophenyl)-3-chloro-5-fluoropicolinate]",60 to 74
5,"COC(=O)c1nc(-c2ccc(Br)cc2)c(F)c(N)c1Cl [Compound 138, Methyl 4-amino-6-(4-bromophenyl)-3-chloro-5-fluoropicolinate]",75 to 84
6,COC(=O)c1nc(-c2ccc(C#N)cc2)c(F)c(N)c1Cl [Compound 142],0 to 29
7,Nc1c(F)c(-c2ccc(OC(F)F)cc2)nc(C(=O)O)c1Cl [Compound 143],30 to 44

# Same assay, conditions: Phalaris minor, post-emergence, 504 h; 140 g ai/ha; read-out: Visual Growth Reduction (%) 21 Days After Application PHAMI
row,Structure (SMILES),pest or weed control at 140 g/ha [%]
1,"Nc1c(F)c(-c2ccc(I)cc2)nc(C(=O)O)c1Cl [Compound 45, 4-amino-3-chloro-5-fluoro-6-(4-iodophenyl)picolinic acid]",95 to 100
2,COC(=O)c1nc(-c2ccc(OC(F)F)cc2)c(F)c(N)c1Cl [Compound 85],0 to 29
3,"COC(=O)c1nc(-c2ccc(Br)c(F)c2F)cc(N)c1Cl [Compound 114, methyl 4-amino-6-(4-bromo-2,3-difluorophenyl)-3-chloropicolinate]",0 to 29
4,"COC(=O)c1nc(-c2ccc(I)cc2)c(F)c(N)c1Cl [Compound 118, Methyl 4-amino-6-(4-iodophenyl)-3-chloro-5-fluoropicolinate]",75 to 84
5,"COC(=O)c1nc(-c2ccc(Br)cc2)c(F)c(N)c1Cl [Compound 138, Methyl 4-amino-6-(4-bromophenyl)-3-chloro-5-fluoropicolinate]",85 to 94
6,COC(=O)c1nc(-c2ccc(C#N)cc2)c(F)c(N)c1Cl [Compound 142],0 to 29
7,Nc1c(F)c(-c2ccc(OC(F)F)cc2)nc(C(=O)O)c1Cl [Compound 143],60 to 74

# Same assay, conditions: probit analysis, dose for growth reduction of 50 percent, 21 days after application
row,Structure (SMILES),GR50 PHAMI [g ai/ha]
1,"Nc1c(F)c(-c2ccc(I)cc2)nc(C(=O)O)c1Cl [Compound 45, 4-amino-3-chloro-5-fluoro-6-(4-iodophenyl)picolinic acid]",15
2,COC(=O)c1nc(-c2ccc(OC(F)F)cc2)c(F)c(N)c1Cl [Compound 85],>140
3,"COC(=O)c1nc(-c2ccc(Br)c(F)c2F)cc(N)c1Cl [Compound 114, methyl 4-amino-6-(4-bromo-2,3-difluorophenyl)-3-chloropicolinate]",>140
4,"COC(=O)c1nc(-c2ccc(I)cc2)c(F)c(N)c1Cl [Compound 118, Methyl 4-amino-6-(4-iodophenyl)-3-chloro-5-fluoropicolinate]",68
5,"COC(=O)c1nc(-c2ccc(Br)cc2)c(F)c(N)c1Cl [Compound 138, Methyl 4-amino-6-(4-bromophenyl)-3-chloro-5-fluoropicolinate]",31
6,COC(=O)c1nc(-c2ccc(C#N)cc2)c(F)c(N)c1Cl [Compound 142],>140
7,Nc1c(F)c(-c2ccc(OC(F)F)cc2)nc(C(=O)O)c1Cl [Compound 143],112

# Same assay, conditions: probit analysis, dose for growth reduction of 80 percent, 21 days after application
row,Structure (SMILES),GR80 PHAMI [g ai/ha]
1,"Nc1c(F)c(-c2ccc(I)cc2)nc(C(=O)O)c1Cl [Compound 45, 4-amino-3-chloro-5-fluoro-6-(4-iodophenyl)picolinic acid]",32
2,COC(=O)c1nc(-c2ccc(OC(F)F)cc2)c(F)c(N)c1Cl [Compound 85],>140
3,"COC(=O)c1nc(-c2ccc(Br)c(F)c2F)cc(N)c1Cl [Compound 114, methyl 4-amino-6-(4-bromo-2,3-difluorophenyl)-3-chloropicolinate]",>140
4,"COC(=O)c1nc(-c2ccc(I)cc2)c(F)c(N)c1Cl [Compound 118, Methyl 4-amino-6-(4-iodophenyl)-3-chloro-5-fluoropicolinate]",126
5,"COC(=O)c1nc(-c2ccc(Br)cc2)c(F)c(N)c1Cl [Compound 138, Methyl 4-amino-6-(4-bromophenyl)-3-chloro-5-fluoropicolinate]",78
6,COC(=O)c1nc(-c2ccc(C#N)cc2)c(F)c(N)c1Cl [Compound 142],>140
7,Nc1c(F)c(-c2ccc(OC(F)F)cc2)nc(C(=O)O)c1Cl [Compound 143],>140

# Test system: STEME: common chickweed (Stellaria media)
# Assay: as above
# Assay type: in vivo
# Details: Stellaria media, post-emergence, 504 h; 35 g ai/ha; read-out: Visual Growth Reduction (%) 21 Days After Application STEME
# In short: as §1
row,Structure (SMILES),pest or weed control at 35 g/ha [%]
1,"Nc1c(F)c(-c2ccc(I)cc2)nc(C(=O)O)c1Cl [Compound 45, 4-amino-3-chloro-5-fluoro-6-(4-iodophenyl)picolinic acid]",30 to 44
2,COC(=O)c1nc(-c2ccc(OC(F)F)cc2)c(F)c(N)c1Cl [Compound 85],0 to 29
3,"COC(=O)c1nc(-c2ccc(Br)c(F)c2F)cc(N)c1Cl [Compound 114, methyl 4-amino-6-(4-bromo-2,3-difluorophenyl)-3-chloropicolinate]",0 to 29
4,"COC(=O)c1nc(-c2ccc(I)cc2)c(F)c(N)c1Cl [Compound 118, Methyl 4-amino-6-(4-iodophenyl)-3-chloro-5-fluoropicolinate]",30 to 44
5,"COC(=O)c1nc(-c2ccc(Br)cc2)c(F)c(N)c1Cl [Compound 138, Methyl 4-amino-6-(4-bromophenyl)-3-chloro-5-fluoropicolinate]",30 to 44
6,COC(=O)c1nc(-c2ccc(C#N)cc2)c(F)c(N)c1Cl [Compound 142],0 to 29
7,Nc1c(F)c(-c2ccc(OC(F)F)cc2)nc(C(=O)O)c1Cl [Compound 143],0 to 29

# Same assay, conditions: Stellaria media, post-emergence, 504 h; 70 g ai/ha; read-out: Visual Growth Reduction (%) 21 Days After Application STEME
row,Structure (SMILES),pest or weed control at 70 g/ha [%]
1,"Nc1c(F)c(-c2ccc(I)cc2)nc(C(=O)O)c1Cl [Compound 45, 4-amino-3-chloro-5-fluoro-6-(4-iodophenyl)picolinic acid]",30 to 44
2,COC(=O)c1nc(-c2ccc(OC(F)F)cc2)c(F)c(N)c1Cl [Compound 85],0 to 29
3,"COC(=O)c1nc(-c2ccc(Br)c(F)c2F)cc(N)c1Cl [Compound 114, methyl 4-amino-6-(4-bromo-2,3-difluorophenyl)-3-chloropicolinate]",0 to 29
4,"COC(=O)c1nc(-c2ccc(I)cc2)c(F)c(N)c1Cl [Compound 118, Methyl 4-amino-6-(4-iodophenyl)-3-chloro-5-fluoropicolinate]",30 to 44
5,"COC(=O)c1nc(-c2ccc(Br)cc2)c(F)c(N)c1Cl [Compound 138, Methyl 4-amino-6-(4-bromophenyl)-3-chloro-5-fluoropicolinate]",30 to 44
6,COC(=O)c1nc(-c2ccc(C#N)cc2)c(F)c(N)c1Cl [Compound 142],0 to 29
7,Nc1c(F)c(-c2ccc(OC(F)F)cc2)nc(C(=O)O)c1Cl [Compound 143],0 to 29

# Same assay, conditions: Stellaria media, post-emergence, 504 h; 140 g ai/ha; read-out: Visual Growth Reduction (%) 21 Days After Application STEME
row,Structure (SMILES),pest or weed control at 140 g/ha [%]
1,"Nc1c(F)c(-c2ccc(I)cc2)nc(C(=O)O)c1Cl [Compound 45, 4-amino-3-chloro-5-fluoro-6-(4-iodophenyl)picolinic acid]",30 to 44
2,COC(=O)c1nc(-c2ccc(OC(F)F)cc2)c(F)c(N)c1Cl [Compound 85],0 to 29
3,"COC(=O)c1nc(-c2ccc(Br)c(F)c2F)cc(N)c1Cl [Compound 114, methyl 4-amino-6-(4-bromo-2,3-difluorophenyl)-3-chloropicolinate]",0 to 29
4,"COC(=O)c1nc(-c2ccc(I)cc2)c(F)c(N)c1Cl [Compound 118, Methyl 4-amino-6-(4-iodophenyl)-3-chloro-5-fluoropicolinate]",30 to 44
5,"COC(=O)c1nc(-c2ccc(Br)cc2)c(F)c(N)c1Cl [Compound 138, Methyl 4-amino-6-(4-bromophenyl)-3-chloro-5-fluoropicolinate]",45 to 59
6,COC(=O)c1nc(-c2ccc(C#N)cc2)c(F)c(N)c1Cl [Compound 142],0 to 29
7,Nc1c(F)c(-c2ccc(OC(F)F)cc2)nc(C(=O)O)c1Cl [Compound 143],0 to 29

# Same assay, conditions: probit analysis, dose for growth reduction of 50 percent, 21 days after application
row,Structure (SMILES),GR50 STEME [g ai/ha]
1,"Nc1c(F)c(-c2ccc(I)cc2)nc(C(=O)O)c1Cl [Compound 45, 4-amino-3-chloro-5-fluoro-6-(4-iodophenyl)picolinic acid]",75
2,COC(=O)c1nc(-c2ccc(OC(F)F)cc2)c(F)c(N)c1Cl [Compound 85],57
3,"COC(=O)c1nc(-c2ccc(Br)c(F)c2F)cc(N)c1Cl [Compound 114, methyl 4-amino-6-(4-bromo-2,3-difluorophenyl)-3-chloropicolinate]",>140
4,"COC(=O)c1nc(-c2ccc(I)cc2)c(F)c(N)c1Cl [Compound 118, Methyl 4-amino-6-(4-iodophenyl)-3-chloro-5-fluoropicolinate]",1
5,"COC(=O)c1nc(-c2ccc(Br)cc2)c(F)c(N)c1Cl [Compound 138, Methyl 4-amino-6-(4-bromophenyl)-3-chloro-5-fluoropicolinate]",125
6,COC(=O)c1nc(-c2ccc(C#N)cc2)c(F)c(N)c1Cl [Compound 142],>140
7,Nc1c(F)c(-c2ccc(OC(F)F)cc2)nc(C(=O)O)c1Cl [Compound 143],>140

# Same assay, conditions: probit analysis, dose for growth reduction of 80 percent, 21 days after application
row,Structure (SMILES),GR80 STEME [g ai/ha]
1,"Nc1c(F)c(-c2ccc(I)cc2)nc(C(=O)O)c1Cl [Compound 45, 4-amino-3-chloro-5-fluoro-6-(4-iodophenyl)picolinic acid]",>140
2,COC(=O)c1nc(-c2ccc(OC(F)F)cc2)c(F)c(N)c1Cl [Compound 85],123
3,"COC(=O)c1nc(-c2ccc(Br)c(F)c2F)cc(N)c1Cl [Compound 114, methyl 4-amino-6-(4-bromo-2,3-difluorophenyl)-3-chloropicolinate]",>140
4,"COC(=O)c1nc(-c2ccc(I)cc2)c(F)c(N)c1Cl [Compound 118, Methyl 4-amino-6-(4-iodophenyl)-3-chloro-5-fluoropicolinate]",1
5,"COC(=O)c1nc(-c2ccc(Br)cc2)c(F)c(N)c1Cl [Compound 138, Methyl 4-amino-6-(4-bromophenyl)-3-chloro-5-fluoropicolinate]",>140
6,COC(=O)c1nc(-c2ccc(C#N)cc2)c(F)c(N)c1Cl [Compound 142],>140
7,Nc1c(F)c(-c2ccc(OC(F)F)cc2)nc(C(=O)O)c1Cl [Compound 143],>140
